Reference: PubChem BioAssay AID1963846 (Molecular Pharmacology Branch, DTP, NCI, 2024)
“And” between values parts separate entries of the source, which are not always exact repeats. Identical values can stand only once.

System: 454973-116-R2-J3-PDC complex spheroid viability
Assay: Anticancer human tumor 454973-116-R2-J3-PDC patient-derived pancreatic carcinoma cell line growth inhibition [POLQ]
Conditions: for viability, T/C: stronger effect = lower value
Description: Multicellular complex tumor spheroid response to Polymerase (POL) inhibitors (novobiocin, ART-558, RP6685) in combination with a variety of drugs and investigational agents in selected tumor cell lines
The POL inhibitors (novobiocin, ART-558, and RP6685) were evaluated both individually and in combination with standard of care and investigational anticancer small molecules within a complex spheroid model of solid tumors. . Complex spheroids include a stromal component modeled by human endothelial cells (HUVEC) and fibroblasts modeled by human mesenchymal stem cells (MSCs). The concentration ranges selected for each drug and investigational agent were based upon clinically achievable concentrations if the clinical Cmax of the agent was known.
Compounds. The drugs and investigational agents: novobiocin (NSC847541), ART-558 (NSC835418), RP-6685 (NSC848927), peposertib (NSC802822), ceralasertib (NSC780249), elimusertib (NSC800525), camonsertib (NSC841442), AZD-1390 (NSC803789), olaparib (NSC753686), talazoparib (NSC767125), rucaparib (NSC756644), sotorasib (NSC818433), MRTX-1133 (NSC836407), SN-38 (NSC673596), topotecan (NSC609699), epotoside (NSC141540), doxorubicin (NSC123127), gemcitabine (NSC613327), 5-fluorouracil (NSC19893), paclitaxel (NSC125973), vemurafenib (NSC761431), MSA-2 (NSC828583), SN-011 (NSC837082), adavosertib (NSC754352), prexasertib (NSC758257), carboplatin (NSC241240) and oxaliplatin (NSC266046), were obtained from the National Cancer Institute (NCI) Developmental Therapeutics Program Chemical Repository (21). The FDA-approved anticancer drug set is available from the Developmental Therapeutics Program at https://dtp.cancer.gov/organization/dscb/obtaining/. […] The stock solutions were prepared in dimethyl sulfoxide (DMSO, Sigma-Aldrich, St. Louis, MO, cat. D2650), except for the platinum compounds which were prepared in saline (Quality Biological, Gaithersburg, MD, cat. 114-055-101), at 800-fold the tested concentration and stored at -70 degrees C prior to their use. All drugs and investigational agents were tested over a range starting from a high concentration at or near the clinical Cmax and decreasing in half-log increments. If the clinical Cmax for an agent had not been determined, the highest concentration tested was 10 microM, except for SN-38, which was tested at a high concentration of 1 microM.
Cell Culture. All cells were maintained in an incubator at 37 degrees C and 5% CO2 with 95% humidity. The PDC lines were cultured according to standard operating procedures established by the NCI PDMR (https://pdmr.cancer.gov). Table 3 of the manuscript, lists the cell lines along with the number of the three cell types plated to form the mct-spheroids and media for tumor cell growth. After thawing, all PDC lines, except 997537-175-T-J1-PDC and 415267-285-R-J2-PDC, were cultured in Matrigel-coated flasks prepared with a working solution of 1X Ham's F-12 nutrient mix, without supplementation (Thermo Fisher Scientific, cat. 11765054), 100 U/mL penicillin-streptomycin (Thermo Fisher Scientific, cat. 15140122), and 2.5% Matrigel (Corning Inc., Corning, NY, cat. 354248) for the first three passages. The two PDC lines 997537-175-T-J1-PDC and 415267-285-R-J2-PDC were cultured on uncoated flasks. The 857933-349-R-J2-PDC line was cultured in 6C/Colon 1B media containing advanced DMEM/F-12 (Thermo Fisher Scientific, cat. 12634028), 10 mM HEPES (Thermo Fisher Scientific, cat. 15630080), 1X GlutaMAX supplement (Thermo Fisher Scientific, cat. 35050061), 0.1 mg/mL primocin (InvivoGen, San Diego, CA, cat. ant-pm-2), 10% defined fetal bovine serum, heat inactivated (HyClone Laboratories Inc., Logan, UT, cat. SH30070.03HI), 50% L-WRN conditioned media (ATCC, cat. CRL-3276), 1.25 mM N-Acetyl-L-cysteine (Sigma-Aldrich, cat. A9165), 10 mM nicotinamide (Sigma-Aldrich, cat. N0636), 1X B-27 supplement (Thermo Fisher Scientific, cat. 17504044), 1X N-2 supplement (Thermo Fisher Scientific, cat. […]
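Note: spheroids exposed to drugs for seven days before measurement.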
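Throughout, for viability, T/C: percent viability relative to DMSO vehicle control wells taken as 100%.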

CC(=O)O[C@H]1C(=O)[C@@]2(C)[C@H]([C@H](OC(=O)c3ccccc3)[C@]3(O)C[C@H](OC(=O)[C@H](O)[C@@H](NC(=O)c4ccccc4)c4ccccc4)C(C)=C1C3(C)C)[C@]1(OC(C)=O)CO[C@@H]1C[C@@H]2O
viability, T/C (compound 0.00949 µM): 6.41% and 6.34% and 12.2% | viability, T/C (compound 0.03 µM): 4.28% and 4.53% and 8.36% | viability, T/C (compound 0.0949 µM): 6.3% and 3.83% and 4.72% | viability, T/C (compound 0.3 µM): 4.7% and 3.78% and 4.01% | viability, T/C (compound 0.949 µM): 4.44% and 4.41% and 4.87% | viability, T/C (compound 3 µM): 4.64% and 4.24% and 4.62% | IC50 (curve of compound): < 9.49 nM

C=CCn1c(=O)c2cnc(Nc3ccc(N4CCN(C)CC4)cc3)nc2n1-c1cccc(C(C)(C)O)n1
viability, T/C (compound 0.00316 µM): 108% and 106% and 102% | viability, T/C (compound 0.01 µM): 96.7% and 98.2% and 99.6% | viability, T/C (compound 0.0316 µM): 110% and 99.7% and 102% | viability, T/C (compound 0.1 µM): 105% and 104% and 98.3% | viability, T/C (compound 0.316 µM): 86.9% and 73.9% and 63.5% | viability, T/C (compound 1 µM): 17.3% and 10.9% and 9.18% | IC50 (curve of compound): 583 nM and 490 nM and 421 nM

COc1cc2cc(C(=O)CCC(=O)O)sc2cc1OC + Cc1cccc(N(C)C(=O)C2C(O)CCN2c2nc(C)cc(C(F)(F)F)c2C#N)c1
IC50 (curve of first compound, second compound 0.0316 µM): > 10000 nM | IC50 (curve of first compound, second compound 0.1 µM): > 10000 nM | IC50 (curve of first compound, second compound 0.316 µM): > 10000 nM | IC50 (curve of first compound, second compound 1 µM): > 10000 nM | IC50 (curve of first compound, second compound 3.16 µM): > 10000 nM | IC50 (curve of first compound, second compound 10 µM): > 10000 nM | viability, T/C (second compound 0.0316 µM, first compound 0.0316 µM): 103% | viability, T/C (second compound 0.0316 µM, first compound 0.1 µM): 107% | viability, T/C (second compound 0.0316 µM, first compound 0.316 µM): 107% | viability, T/C (second compound 0.0316 µM, first compound 1 µM): 102% | viability, T/C (second compound 0.0316 µM, first compound 3.16 µM): 106% | viability, T/C (second compound 0.0316 µM, first compound 10 µM): 97% | viability, T/C (second compound 0.1 µM, first compound 0.0316 µM): 105% | viability, T/C (second compound 0.1 µM, first compound 0.1 µM): 98.1% | viability, T/C (second compound 0.1 µM, first compound 0.316 µM): 95.7% | viability, T/C (second compound 0.1 µM, first compound 1 µM): 98% | viability, T/C (second compound 0.1 µM, first compound 3.16 µM): 92.6% | viability, T/C (second compound 0.1 µM, first compound 10 µM): 88.7% | viability, T/C (second compound 0.316 µM, first compound 0.0316 µM): 93.8% | viability, T/C (second compound 0.316 µM, first compound 0.1 µM): 104% | viability, T/C (second compound 0.316 µM, first compound 0.316 µM): 96.2% | viability, T/C (second compound 0.316 µM, first compound 1 µM): 110% | viability, T/C (second compound 0.316 µM, first compound 3.16 µM): 109% | viability, T/C (second compound 0.316 µM, first compound 10 µM): 93.7% | viability, T/C (second compound 1 µM, first compound 0.0316 µM): 105% | viability, T/C (second compound 1 µM, first compound 0.1 µM): 102% | viability, T/C (second compound 1 µM, first compound 0.316 µM): 99% | viability, T/C (second compound 1 µM, first compound 1 µM): 102% | viability, T/C (second compound 1 µM, first compound 3.16 µM): 105% | viability, T/C (second compound 1 µM, first compound 10 µM): 93.7% | viability, T/C (second compound 3.16 µM, first compound 0.0316 µM): 103% | viability, T/C (second compound 3.16 µM, first compound 0.1 µM): 97.9% | viability, T/C (second compound 3.16 µM, first compound 0.316 µM): 96.5% | viability, T/C (second compound 3.16 µM, first compound 1 µM): 100% | viability, T/C (second compound 3.16 µM, first compound 3.16 µM): 98.9% | viability, T/C (second compound 3.16 µM, first compound 10 µM): 95.5% | viability, T/C (second compound 10 µM, first compound 0.0316 µM): 97.7% | viability, T/C (second compound 10 µM, first compound 0.1 µM): 98.8% | viability, T/C (second compound 10 µM, first compound 0.316 µM): 94% | viability, T/C (second compound 10 µM, first compound 1 µM): 111% | viability, T/C (second compound 10 µM, first compound 3.16 µM): 102% | viability, T/C (second compound 10 µM, first compound 10 µM): 90.8%

COc1cccc2c1C(=O)c1c(O)c3c(c(O)c1C2=O)CC(O)(C(=O)CO)CC3OC1CC(N)C(O)C(C)O1 (stereo not drawn)
viability, T/C (compound 0.0316 µM): 73.1% and 56.1% and 76.5% | viability, T/C (compound 0.1 µM): 29.5% and 17.3% and 24.4% | viability, T/C (compound 0.316 µM): 22.2% and 15.9% and 20.4% | viability, T/C (compound 1 µM): 9.63% and 3.16% and 7.36% | viability, T/C (compound 3.16 µM): 0.59% and 0.89% and 0.65% | viability, T/C (compound 10 µM): 0.49% and 0.17% and 1.33% | IC50 (curve of compound): 62.6 nM and 37.5 nM and 60.1 nM
